Data taken from the supplement of paper PMC6045584.
± gives the standard deviation of the averaged measurements.

Tests used:
2-METHOXYESTRADIOL = compound: COc1cc2c(cc1O)CC[C@@H]1[C@@H]2CC[C@]2(C)[C@@H](O)CC[C@@H]12 [2-METHOXYESTRADIOL]; assay: surviving fraction relative to DMSO-only wells; higher = less growth inhibition; conditions: exposure time: 5 days
Summary of the method: (§1)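 Tumour cell lines were grown to log phase and seeded at 250–500 cells per well in 384-well plates. They were exposed continuously to inhibitors at 0.5, 1, 5, 10, 50, 100, 500 and 1000 nM for five days, beginning 24 hours after seeding. Surviving fraction is CellTiter-Glo luminescence normalised to the median of DMSO-only wells.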

RESVERATROL = compound: Oc1ccc(/C=C/c2cc(O)cc(O)c2)cc1 [RESVERATROL]; assay: as above; conditions: exposure time: 5 days
Summary of the method: as §1

PCI30 HEADNECK
surviving fraction (2-METHOXYESTRADIOL; 0.5 nM): 0.783 ± 0.016
surviving fraction (2-METHOXYESTRADIOL; 1 nM): 0.857 ± 0.019
surviving fraction (2-METHOXYESTRADIOL; 5 nM): 1.03 ± 0.039
surviving fraction (2-METHOXYESTRADIOL; 10 nM): 0.985 ± 0.057
surviving fraction (2-METHOXYESTRADIOL; 50 nM): 1.01 ± 0.078
surviving fraction (2-METHOXYESTRADIOL; 100 nM): 0.982 ± 0.051
surviving fraction (2-METHOXYESTRADIOL; 500 nM): 0.421 ± 0.048
surviving fraction (2-METHOXYESTRADIOL; 1000 nM): 0.216 ± 0.046
surviving fraction (RESVERATROL; 0.5 nM): 1 ± 0.031
surviving fraction (RESVERATROL; 1 nM): 1.02 ± 0.058
surviving fraction (RESVERATROL; 5 nM): 1.04 ± 0.03
surviving fraction (RESVERATROL; 10 nM): 1.1 ± 0.08
surviving fraction (RESVERATROL; 50 nM): 1.05 ± 0.031
surviving fraction (RESVERATROL; 100 nM): 1.13 ± 0.045
surviving fraction (RESVERATROL; 500 nM): 1.07 ± 0.082
surviving fraction (RESVERATROL; 1000 nM): 1.16 ± 0.015

RDES SOFT TISSUE
surviving fraction (2-METHOXYESTRADIOL; 0.5 nM): 1.26 ± 0.16
surviving fraction (2-METHOXYESTRADIOL; 1 nM): 1.26 ± 0.086
surviving fraction (2-METHOXYESTRADIOL; 5 nM): 1.15 ± 0.046
surviving fraction (2-METHOXYESTRADIOL; 10 nM): 1.29 ± 0.11
surviving fraction (2-METHOXYESTRADIOL; 50 nM): 1.29 ± 0.15
surviving fraction (2-METHOXYESTRADIOL; 100 nM): 1.17 ± 0.14
surviving fraction (2-METHOXYESTRADIOL; 500 nM): 1.13 ± 0.12
surviving fraction (2-METHOXYESTRADIOL; 1000 nM): 0.178 ± 0.034
surviving fraction (RESVERATROL; 0.5 nM): 1.25 ± 0.14
surviving fraction (RESVERATROL; 1 nM): 1.25 ± 0.05
surviving fraction (RESVERATROL; 5 nM): 1.29 ± 0.042
surviving fraction (RESVERATROL; 10 nM): 1.32 ± 0.054
surviving fraction (RESVERATROL; 50 nM): 1.37 ± 0.13
surviving fraction (RESVERATROL; 100 nM): 1.35 ± 0.24
surviving fraction (RESVERATROL; 500 nM): 1.68 ± 0.053
surviving fraction (RESVERATROL; 1000 nM): 1.67 ± 0.12

S68 BREAST
surviving fraction (2-METHOXYESTRADIOL; 0.5 nM): 0.845 ± 0.17
surviving fraction (2-METHOXYESTRADIOL; 1 nM): 0.812 ± 0.15
surviving fraction (2-METHOXYESTRADIOL; 5 nM): 0.879 ± 0.13
surviving fraction (2-METHOXYESTRADIOL; 10 nM): 1.16 ± 0.3
surviving fraction (2-METHOXYESTRADIOL; 50 nM): 1.24 ± 0.23
surviving fraction (2-METHOXYESTRADIOL; 100 nM): 0.985 ± 0.067
surviving fraction (2-METHOXYESTRADIOL; 500 nM): 0.617 ± 0.036
surviving fraction (2-METHOXYESTRADIOL; 1000 nM): 0.325 ± 0.017
surviving fraction (RESVERATROL; 0.5 nM): 0.829 ± 0.095
surviving fraction (RESVERATROL; 1 nM): 0.815 ± 0.21
surviving fraction (RESVERATROL; 5 nM): 0.993 ± 0.36
surviving fraction (RESVERATROL; 10 nM): 0.818 ± 0.095
surviving fraction (RESVERATROL; 50 nM): 1.14 ± 0.17
surviving fraction (RESVERATROL; 100 nM): 1 ± 0.059
surviving fraction (RESVERATROL; 500 nM): 1.1 ± 0.12
surviving fraction (RESVERATROL; 1000 nM): 0.878 ± 0.066

SAOS2 BONE
surviving fraction (2-METHOXYESTRADIOL; 0.5 nM): 1.09 ± 0.099
surviving fraction (2-METHOXYESTRADIOL; 1 nM): 1.16 ± 0.065
surviving fraction (2-METHOXYESTRADIOL; 5 nM): 1.17 ± 0.019
surviving fraction (2-METHOXYESTRADIOL; 10 nM): 1.17 ± 0.05
surviving fraction (2-METHOXYESTRADIOL; 50 nM): 1.28 ± 0.21
surviving fraction (2-METHOXYESTRADIOL; 100 nM): 1.22 ± 0.051
surviving fraction (2-METHOXYESTRADIOL; 500 nM): 0.769 ± 0.076
surviving fraction (2-METHOXYESTRADIOL; 1000 nM): 0.272 ± 0.013
surviving fraction (RESVERATROL; 0.5 nM): 1.16 ± 0.15
surviving fraction (RESVERATROL; 1 nM): 1.24 ± 0.047
surviving fraction (RESVERATROL; 5 nM): 1.24 ± 0.091
surviving fraction (RESVERATROL; 10 nM): 1.23 ± 0.061
surviving fraction (RESVERATROL; 50 nM): 1.26 ± 0.11
surviving fraction (RESVERATROL; 100 nM): 1.22 ± 0.089
surviving fraction (RESVERATROL; 500 nM): 1.24 ± 0.084
surviving fraction (RESVERATROL; 1000 nM): 1.18 ± 0.072

SCC003 HEADNECK
surviving fraction (2-METHOXYESTRADIOL; 0.5 nM): 0.936 ± 0.064
surviving fraction (2-METHOXYESTRADIOL; 1 nM): 0.88 ± 0.13
surviving fraction (2-METHOXYESTRADIOL; 5 nM): 1.03 ± 0.045
surviving fraction (2-METHOXYESTRADIOL; 10 nM): 0.976 ± 0.074
surviving fraction (2-METHOXYESTRADIOL; 50 nM): 1.04 ± 0.043
surviving fraction (2-METHOXYESTRADIOL; 100 nM): 1.11 ± 0.017
surviving fraction (2-METHOXYESTRADIOL; 500 nM): 0.867 ± 0.15
surviving fraction (2-METHOXYESTRADIOL; 1000 nM): 0.734 ± 0.087
surviving fraction (RESVERATROL; 0.5 nM): 1.05 ± 0.056
surviving fraction (RESVERATROL; 1 nM): 1.06 ± 0.15
surviving fraction (RESVERATROL; 5 nM): 1.14 ± 0.012
surviving fraction (RESVERATROL; 10 nM): 1.12 ± 0.058
surviving fraction (RESVERATROL; 50 nM): 1.06 ± 0.084
surviving fraction (RESVERATROL; 100 nM): 1.1 ± 0.064
surviving fraction (RESVERATROL; 500 nM): 1.09 ± 0.017
surviving fraction (RESVERATROL; 1000 nM): 1.15 ± 0.075
